Results published in DBAASP.
Values after ≈ are worked out from the molar mass of the structure shown.

Key:
Assay in all cases: ≥ marks a high value that may be exact or a test limit, other limits are often not marked, values filed in µg/mL are converted to µM
[1] = test system: Alkalihalobacillus alcalophilus MTCC 860
[2] = test system: Stenotrophomonas maltophilia MTCC 1890
[3] = test system: Klebsiella aerogenes MTCC 111
[4] = test system: Salmonella enterica MTCC 9844
[5] = test system: Bordetella bronchiseptica MTCC 6837
[6] = test system: Pluralibacter gergoviae MTCC 3826
[7] = test system: Klebsiella pneumoniae MTCC 7407
[8] = test system: Alcaligenes faecalis MTCC 1937
[9] = test system: Salmonella enterica subsp. enterica serovar Typhimurium ATCC 14028
[10] = test system: Acinetobacter baumannii MTCC 9829
[11] = test system: Citrobacter koseri MTCC 1657
[12] = test system: Shigella flexneri MTCC 1457
[13] = test system: Shigella boydii MTCC 11947
[14] = test system: Citrobacter freundii MTCC 1658
[15] = test system: Pseudomonas aeruginosa MTCC 3542
[16] = test system: Staphylococcus aureus MTCC 3160
[17] = test system: Haemophilus influenzae MTCC 621
[18] = test system: Proteus vulgaris MTCC 1771
[19] = test system: Enterococcus faecalis MTCC 439
[20] = test system: Escherichia coli K12 MG1655
[21] = test system: Proteus mirabilis MTCC 3158
[22] = test system: Klebsiella oxytoca MTCC 2275
[23] = test system: Corynebacterium glutamicum MTCC 2679
[24] = test system: Staphylococcus haemolyticus MTCC 3383
[25] = test system: Vibrio cholerae MTCC 3904
[26] = test system: Pseudomonas aeruginosa Ps4
[27] = test system: Escherichia coli ATCC 25922
[28] = test system: Candida albicans ATCC 90028
Candida albicans SC5314 = test system: Candida albicans SC5314
[29] = test system: Candida parapsilosis ATCC 22019
Candida krusei ATCC 6258 = test system: Candida krusei ATCC 6258

| SMILES | MIC [1] [µM] | MIC [2] [µM] | MIC [3] [µM] | MIC [4] [µM] | MIC [5] [µM] | MIC [6] [µM] | MIC [7] [µM] | MIC [8] [µM] | MIC [9] [µM] | MIC [10] [µM] | MIC [11] [µM] | MIC [12] [µM] | MIC [13] [µM] | MIC [14] [µM] | MIC [15] [µM] | MIC [16] [µM] | MIC [17] [µM] | MIC [18] [µM] | MIC [19] [µM] | MIC [20] [µM] | also measured |
| --- | --- | --- | --- | --- | --- | --- | --- | --- | --- | --- | --- | --- | --- | --- | --- | --- | --- | --- | --- | --- | --- |
| CSCC[C@H](NC(=O)[C@H](CCCCN)NC(=O)[C@H](CCCCN)NC(=O)[C@H](CC(C)C)NC(=O)[C@H](C)N)C(=O)N[C@@H](CC(C)C)C(=O)N[C@@H](CCCN=C(N)N)C(=O)N[C@@H](CC(C)C)C(=O)N[C@@H](C)C(=O)N[C@@H](CCCCN)C(=O)N[C@@H](CCCN=C(N)N)C(=O)N[C@@H](CC(C)C)C(=O)N[C@@H](CO)C(=O)O [ALKKMLRLAKRLS] | ≥ 83.8 | ≥ 83.8 | ≥ 83.8 | 20.9 (≈ 32 µg/mL) | 5.24 (≈ 8 µg/mL) | ≥ 83.8 | ≥ 83.8 | ≥ 83.8 | > 83.8 | ≥ 83.8 | ≥ 41.9 | 20.9 (≈ 32 µg/mL) | ≥ 41.9 | ≥ 83.8 | ≥ 83.8 | ≥ 83.8 | ≥ 41.9 | ≥ 83.8 | ≥ 83.8 | ≥ 41.9 | MIC [21]: ≥ 83.8 µM; MIC [22]: ≥ 83.8 µM; MIC [23]: 10.5 µM (≈ 16 µg/mL); MIC [24]: ≥ 83.8 µM; MIC [25]: ≥ 83.8 µM |
| CC[C@H](C)[C@H](NC(=O)[C@@H](N)CCC(=O)O)C(=O)N[C@@H](CC(C)C)C(=O)N[C@@H](CO)C(=O)N[C@@H](CCCCN)C(=O)N[C@@H](C)C(=O)N[C@@H](CC(C)C)C(=O)N[C@@H](CO)C(=O)N[C@@H](C)C(=O)N[C@@H](CC(C)C)C(=O)N[C@@H](CO)C(=O)N1CCC[C@H]1C(=O)N[C@@H](CC(C)C)C(=O)N[C@@H](C)C(=O)N[C@@H](CC(N)=O)C(=O)O [EILSKALSALSPLAN] | ≥ 83.8 | ≥ 83.8 | ≥ 83.8 | ≥ 83.8 | ≥ 83.8 | ≥ 83.8 | ≥ 83.8 | ≥ 83.8 | > 83.8 | ≥ 83.8 | ≥ 83.8 | ≥ 83.8 | ≥ 83.8 | ≥ 83.8 | ≥ 83.8 | ≥ 83.8 | ≥ 83.8 | ≥ 83.8 | ≥ 83.8 | ≥ 83.8 | MIC [21]: ≥ 83.8 µM; MIC [22]: ≥ 83.8 µM; MIC [23]: ≥ 83.8 µM; MIC [24]: ≥ 83.8 µM; MIC [25]: ≥ 83.8 µM |
| CC[C@H](C)[C@H](NC(=O)[C@H](CCCCN)NC(=O)[C@H](CCCN=C(N)N)NC(=O)[C@H](CCC(N)=O)NC(=O)[C@H](Cc1c[nH]c2ccccc12)NC(=O)[C@@H](N)Cc1ccccc1)C(=O)N[C@@H](CCCN=C(N)N)C(=O)N[C@@H](CCCCN)C(=O)N[C@H](C(=O)N[C@@H](CCCCN)C(=O)N[C@@H](CCCCN)C(N)=O)C(C)C [FWQRKIRKVKK] | – | – | – | – | – | – | – | – | – | – | – | – | – | – | – | – | – | – | – | – | MIC [26]: ≥ 165 µM |
| CC[C@H](C)[C@H](NC(=O)[C@H](CCCN=C(N)N)NC(=O)[C@@H](NC(=O)[C@H](CC(N)=O)NC(=O)[C@H](CCCN=C(N)N)NC(=O)[C@H](CCC(N)=O)NC(=O)[C@H](Cc1c[nH]c2ccccc12)NC(=O)[C@@H](N)Cc1ccccc1)[C@@H](C)CC)C(=O)N[C@@H](CCCN=C(N)N)C(=O)N[C@@H](CCCN=C(N)N)C(N)=O [FWQRNIRIRR] | – | – | – | – | – | – | – | – | – | – | – | – | – | – | – | – | – | – | – | – | MIC [27]: 86.5 µM (≈ 125 µg/mL); MIC [26]: ≥ 173 µM |
| CC[C@H](C)[C@H](NC(=O)[C@@H]1CCCN1C(=O)[C@H](CCCN=C(N)N)NC(=O)[C@H](CCC(N)=O)NC(=O)[C@H](Cc1c[nH]c2ccccc12)NC(=O)[C@@H](N)Cc1ccccc1)C(=O)N[C@@H](CCCN=C(N)N)C(=O)N[C@@H](CCCCN)C(=O)N[C@H](C(=O)N[C@@H](CCCN=C(N)N)C(N)=O)C(C)C [FWQRPIRKVR] | – | – | – | – | – | – | – | – | – | – | – | – | – | – | – | – | – | – | – | – | MIC [26]: ≥ 180 µM |
| CC[C@H](C)[C@H](NC(=O)CN)C(=O)N[C@@H](Cc1c[nH]c2ccccc12)C(=O)N[C@@H](CCCCN)C(=O)N[C@@H](CCCCN)C(=O)N[C@@H](Cc1c[nH]c2ccccc12)C(=O)N[C@H](C(=O)N[C@@H](CCCCN)C(=O)N[C@@H](CCCCN)C(=O)N[C@@H](Cc1c[nH]c2ccccc12)C(=O)N[C@@H](CC(C)C)C(=O)N[C@@H](CCCCN)C(=O)N[C@@H](CCCCN)C(=O)N[C@@H](CC(C)C)C(=O)N[C@@H](CC(C)C)C(=O)N[C@@H](CCCCN)C(=O)N[C@@H](CCCCN)C(=O)N[C@@H](CC(C)C)C(=O)N[C@@H](Cc1c[nH]c2ccccc12)C(=O)N[C@@H](CCCCN)C(=O)N[C@@H](CCCCN)C(=O)NCC(=O)O)[C@@H](C)CC [GIWKKWIKKWLKKLLKKLWKKG] | – | – | – | – | – | – | – | – | – | – | – | – | – | – | – | – | – | – | – | – | MIC [28]: 22.6 µM (≈ 64 µg/mL); MIC (Candida albicans SC5314): 11.3 µM (≈ 32 µg/mL); MIC [29]: 22.6 µM (≈ 64 µg/mL); MIC (Candida krusei ATCC 6258): 22.6 µM (≈ 64 µg/mL) |
| CC[C@H](C)[C@H](NC(=O)CNC(=O)[C@H](CCCCN)NC(=O)[C@H](C)NC(=O)[C@H](C)NC(=O)[C@H](CCCCN)NC(=O)[C@H](Cc1cnc[nH]1)NC(=O)[C@@H](NC(=O)[C@H](C)NC(=O)[C@H](CCCCN)NC(=O)[C@H](Cc1c[nH]c2ccccc12)NC(=O)CN)[C@@H](C)CC)C(=O)N[C@@H](Cc1cnc[nH]1)C(=O)N[C@H](C(=O)N[C@@H](Cc1ccc(O)cc1)C(=O)N[C@H](C(=O)N[C@@H](CC(N)=O)C(=O)O)C(C)C)[C@@H](C)O [GWKAIHKAAKGIHTYVN] | ≥ 67.6 | ≥ 67.6 | ≥ 67.6 | ≥ 67.6 | ≥ 67.6 | ≥ 67.6 | ≥ 67.6 | ≥ 67.6 | > 67.6 | ≥ 67.6 | ≥ 67.6 | ≥ 67.6 | ≥ 67.6 | ≥ 67.6 | ≥ 67.6 | ≥ 67.6 | ≥ 33.8 | ≥ 67.6 | ≥ 67.6 | ≥ 67.6 | MIC [21]: ≥ 67.6 µM; MIC [22]: ≥ 67.6 µM; MIC [23]: ≥ 33.8 µM; MIC [24]: ≥ 67.6 µM; MIC [25]: ≥ 67.6 µM |
| CC[C@H](C)[C@H](NC(=O)[C@@H](NC(=O)[C@H](C)NC(=O)[C@H](Cc1cnc[nH]1)NC(=O)[C@H](CC(C)C)NC(=O)[C@H](CCCN=C(N)N)NC(=O)[C@H](C)NC(=O)[C@H](Cc1ccc(O)cc1)NC(=O)[C@@H](NC(=O)[C@@H](N)CCCCN)C(C)C)C(C)C)C(=O)N[C@@H](CCCCN)C(=O)N[C@@H](CCCN=C(N)N)C(=O)N[C@@H](CC(C)C)C(=O)N[C@@H](Cc1cnc[nH]1)C(=O)N[C@@H](CCCN=C(N)N)C(=O)N[C@@H](CCCN=C(N)N)C(=O)N[C@@H](CC(C)C)C(=O)N[C@@H](Cc1cnc[nH]1)C(=O)O [KVYARLHAVIKRLHRRLH] | 14.1 (≈ 32 µg/mL) | ≥ 56.5 | ≥ 56.5 | 14.1 (≈ 32 µg/mL) | 1.76 (≈ 4 µg/mL) | ≥ 56.5 | ≥ 56.5 | ≥ 56.5 | 14.1 (≈ 32 µg/mL) | 14.1 (≈ 32 µg/mL) | 14.1 (≈ 32 µg/mL) | 1.76 (≈ 4 µg/mL) | 3.53 (≈ 8 µg/mL) | 14.1 (≈ 32 µg/mL) | ≥ 56.5 | ≥ 56.5 | 1.76 (≈ 4 µg/mL) | ≥ 56.5 | ≥ 56.5 | 7.06 (≈ 16 µg/mL) | MIC [21]: ≥ 56.5 µM; MIC [22]: 3.53 µM (≈ 8 µg/mL); MIC [23]: 0.882 µM (≈ 2 µg/mL); MIC [24]: 1.76 µM (≈ 4 µg/mL); MIC [25]: ≥ 56.5 µM |
| CC[C@H](C)[C@H](NC(=O)[C@H](CC(N)=O)NC(=O)[C@H](CCCN=C(N)N)NC(=O)[C@H](CCC(N)=O)NC(=O)[C@H](Cc1c[nH]c2ccccc12)NC(=O)[C@@H](N)CCCCN)C(=O)N[C@@H](CCCN=C(N)N)C(=O)N[C@@H](CCCCN)C(=O)N[C@H](C(=O)N[C@@H](CCCN=C(N)N)C(=O)N[C@@H](CCCN=C(N)N)C(N)=O)C(C)C [KWQRNIRKVRR] | – | – | – | – | – | – | – | – | – | – | – | – | – | – | – | – | – | – | – | – | MIC [26]: ≥ 162 µM |
